Source: patent US20100137373A1, “PESTICIDAL COMPOSITION COMPRISING A STR[…] AN I[…]” (priority 2007, published 2010)

Legend:
Myzus persicae = Myzus persicae test (cabbage leaf dip, mortality); assay type: in vivo; details: foliar, 96 h, single compound, infested cabbage leaves dipped, after 4 d
Description: (§1) The expected efficacy of a given combination of two compounds is calculated as follows (see Colby, S. R., “Calculating Synergistic and antagonistic Responses of Herbicide Combinations”, Weeds 15, pp. 20-22, 1967):
(§2) X is the efficacy expressed in % mortality of the untreated control for test compound A at a concentration of m ppm respectively m g/ha,
(§3) Y is the efficacy expressed in % mortality of the untreated control for test compound B at a concentration of n ppm respectively n g/ha,
(§4) E is the efficacy expressed in % mortality of the untreated control using the mixture of A and B at m and n ppm respectively m and n g/ha,
(§5) If the observed insecticidal efficacy of the combination is higher than the one calculated as “E”, then the combination of the two compounds is more than additive, i.e., there is a synergistic effect.
(§6) Solvent: 7 parts by weight of dimethylformamide
(§7) Emulsifier: 2 parts by weight of alkylaryl polyglycolether
To produce a suitable preparation of active compound, 1 part by weight of active compound is mixed with the stated amount of solvent and emulsifier, and the concentrate is diluted with emulsifier-containing water to the desired concentration. […]
After the specified period of time, the mortality in % is determined. […]

Phaedon cochleariae = Phaedon cochleariae test (cabbage leaf dip, larvae mortality); assay type: in vivo; details: foliar, 96 h, single compound, dipped cabbage leaves infested with larvae, after 4 d
Description: as §1, §2, §3, §4, §5, §6, §7
To produce a suitable preparation of active compound, 1 part by weight of active compound is mixed with the stated amount of solvent and emulsifier, and the concentrate is diluted with emulsifier-containing water to the desired concentration.
Cabbage leaves (Brassica oleracea) are treated by being dipped into the preparation of the active compound of the desired concentration and are infested with larvae of the mustard beetle (Phaedon cochleariae) as long as the leaves are still moist.
After the specified period of time, the mortality in % is determined. 100% means that all the beetle larvae have been killed; 0% means that none of the beetle larvae have been killed.

SMILES | mortality at 3e-06 ppm (Myzus persicae; 0.000003 ppm) | mortality at 3e-06 ppm (Phaedon cochleariae; 0.000003 ppm) | mortality at 3e-05 ppm (Phaedon cochleariae; 0.00003 ppm) | mortality at 0.16 ppm (Myzus persicae; 0.16 ppm) | mortality at 20 ppm (Phaedon cochleariae; 20 ppm)
CC1=CC(O/C=C2/C(=O)OC3c4ccccc4CC23)OC1=O (centres unmarked) [Compound A] | 0% | 0% | 0% |  | 
O=[N+]([O-])NC1=NCCN1Cc1ccc(Cl)nc1 [Imidacloprid, reference compound] |  |  |  | 10% | 70%
